In patent publication US5236931A, “2-substituted benzamide and benzoate derivatives of 3-aminoquinuclidine and 3-quinuclidinol” (priority 1992, dated 1993):

Legend:
[1] = reported by Mikhlina et al; cited from earlier work
[2] = test system: gastric emptying of a test meal; experiment: Effect on Gastric Emptying of a Test Meal in Rats; assay type: in vivo; details: rat

**Q.** Which reported activities [1] does the source give for Nc1ccc(C(=O)NC2CN3CCC2CC3)cc1 (centres unmarked) [4-amino-N-(1-azabicyclo[2.2.2]oct-3-yl)-benzamide] here?
**A.** hypotensive, narcotic and ganglionic stimulation and blocking activities

**Q.** For Cc1nc(COc2cc(N)c(Cl)cc2C(=O)N[C@H]2CN3CCC2CC3)cs1 [Example I (R)-isomer, (R)-(+)-4-Amino-N-(1-azabicyclo[2,2,2]oct-3-yl)-5-chloro-2-[(2-methyl-4-thiazolyl)methoxy]benzamide], which “Gastric emptying: % change in meal emptied” value (shortened to “Gastric emptying: % change”) ([2]; 9.0 mg/kg IP) is on record?
**A.** 34%

**Q.** For Cc1nc(COc2cc(N)c(Cl)cc2C(=O)N[C@@H]2CN3CCC2CC3)cs1 [Example I (S)-isomer, S-(-)-4-Amino-N-(1-azabicyclo[2,2,2]oct-3-yl)-5-chloro-2-[(2-methyl-4-thiazolyl)methoxy]benzamide], which “Gastric emptying: % change” value ([2]; 9.0 mg/kg IP) is on record?
**A.** 43%

**Q.** With Cc1nc(COc2cc(N)c(Cl)cc2C(=O)NC2CN3CCC2CC3)cs1 (centres unmarked) [Example I, 4-Amino-N-(1-azabicyclo[2,2,2]oct-3-yl)-5-chloro-2-[(2-methylthiazol-4-yl)methoxy]benzamide] as the compound, how does the “Gastric emptying: % change” value ([2]; 9.0 mg/kg IP) read?
**A.** 36%

**Q.** With Nc1cc(OCc2ccccc2)c(C(=O)NC2CN3CCC2CC3)cc1Cl (centres unmarked) [Example V, 4-Amino-N-(1-azabicyclo[2.2.2]oct-3-yl)-5-chloro-2-(phenylmethoxy)benzamide] as the compound, how does the “Gastric emptying: % change” value ([2]; 1.0 mg/kg IP) read?
**A.** 61%

**Q.** For Nc1cc(OCc2cccc(Cl)c2)c(C(=O)NC2CN3CCC2CC3)cc1Cl (centres unmarked) [Example VI, 4-Amino-N-(1-azabicyclo[2.2.2]oct-3-yl)-5-chloro-2-[(3-chlorophenyl)methoxy]benzamide], which “Gastric emptying: % change” value ([2]; 1.0 mg/kg IP) is on record?
**A.** 52%

**Q.** For Nc1cc(OCc2cccc(I)c2)c(C(=O)NC2CN3CCC2CC3)cc1Cl (centres unmarked) [Example VII, 4-Amino-N-(1-azabicyclo[2.2.2]oct-3-yl)-5-chloro-2-[(3-iodophenyl)methoxy]benzamide], which “Gastric emptying: % change” value ([2]; 0.10 mg/kg IP) is on record?
**A.** 28%

**Q.** With O=C(NC1CN2CCC1CC2)c1ccccc1 (centres unmarked) [N-(1-azabicyclo[2.2.2]oct-3-yl)benzamide] as the compound, how does the reported activities [1] read?
**A.** hypotensive, narcotic and ganglionic stimulation and blocking activities
